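Values below derive from 48-hour exposures of cells grown in 96-well plates, with endpoints linearly interpolated between the two concentrations bracketing the appropriate inhibition level. At the GI50, growth is halved.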 Calls of active or inactive are those of the source. Cut-off read from the data, not from the text of the source: active = GI50 up to about 1.1 µM and inactive = higher.
Key:
Experiment in all cases: inhibition of tumour cell growth, NCI panel, 48 h
NCI-H23 = tested on: NCI-H23
NCI-H226 = tested on: NCI-H226
786-0 = tested on: 786-0
SK-MEL-28 = tested on: SK-MEL-28
SF-295 = tested on: SF-295
DU-145 = tested on: DU-145
RXF 393 = tested on: RXF 393
UACC-62 = tested on: UACC-62
HT-29 = tested on: HT-29
UO-31 = tested on: UO-31
T47D = tested on: T47D
OVCAR-8 = tested on: OVCAR-8
OVCAR-3 = tested on: OVCAR-3
HL-60 = tested on: HL-60
M14 = tested on: M14
PC-3 = tested on: PC-3
HCT-15 = tested on: HCT-15
MDA-MB-231 = tested on: MDA-MB-231
HCC 2998 = tested on: HCC 2998
SK-MEL-2 = tested on: SK-MEL-2

SMILES	GI50 (NCI-H23)	GI50 (NCI-H226)	GI50 (786-0)	GI50 (SK-MEL-28)	GI50 (SF-295)	GI50 (DU-145)	GI50 (RXF 393)	GI50 (UACC-62)	GI50 (HT-29)	GI50 (UO-31)	GI50 (T47D)	GI50 (OVCAR-8)	GI50 (OVCAR-3)	GI50 (HL-60)	GI50 (M14)	GI50 (PC-3)	GI50 (HCT-15) [µM]	GI50 (MDA-MB-231)	GI50 (HCC 2998)	GI50 (SK-MEL-2)
CCN(CC)CCn1c(=O)c2cccnc2n2c3c(=O)n(C)c(=O)n(C)c3nc12	> 100 µM (inactive)	95.1 µM (inactive)	> 100 µM (inactive)	> 100 µM (inactive)	> 100 µM (inactive)	> 100 µM (inactive)	> 100 µM (inactive)	57 µM (inactive)	> 100 µM (inactive)	86.1 µM (inactive)	> 100 µM (inactive)	> 100 µM (inactive)	> 100 µM (inactive)	69 µM (inactive)	> 100 µM (inactive)	> 100 µM (inactive)	11.6	> 100 µM (inactive)	72.4 µM (inactive)	> 100 µM (inactive)
COc1cc(C2c3cc4c(cc3OC(N3CCOCC3)C2C)OCO4)cc(OC)c1O (stereo not given)	24.8 µM (inactive)	22.6 µM (inactive)	10.1 µM (inactive)	12.9 µM (inactive)	3.59 µM (inactive)	29.7 µM (inactive)	14.7 µM (inactive)	3.73 µM (inactive)	4.04 µM (inactive)	14.8 µM (inactive)	9.04 µM (inactive)	14.2 µM (inactive)	5.42 µM (inactive)	3.52 µM (inactive)	7.29 µM (inactive)	6.19 µM (inactive)	2.87	10.1 µM (inactive)	10.5 µM (inactive)	6.9 µM (inactive)
CC(C)=CCC[C@](C)(O[C@@H]1O[C@H](CO)[C@@H](O)[C@H](O)[C@H]1O)[C@H]1CC[C@]2(C)[C@@H]1[C@H](O)C[C@@H]1[C@@]3(C)CC[C@@H](O)C(C)(C)[C@@H]3[C@@H](O[C@@H]3O[C@H](CO)[C@@H](O)[C@H](O)[C@H]3O)C[C@]12C.C[C@@H]1O[C@@H](O[C@H]2[C@H](O[C@H]3C[C@]4(C)[C@H](C[C@H](O)[C@@H]5[C@@H]([C@@]6(C)CC[C@H](C(C)(C)O)O6)CC[C@]54C)[C@@]4(C)CC[C@H](O)C(C)(C)[C@H]34)O[C@H](CO)[C@@H](O)[C@@H]2O)[C@H](O)[C@H](O)[C@H]1O	> 100 µM (inactive)	> 100 µM (inactive)	> 100 µM (inactive)	> 100 µM (inactive)	> 100 µM (inactive)	> 100 µM (inactive)	> 100 µM (inactive)	> 100 µM (inactive)	> 100 µM (inactive)	> 100 µM (inactive)	> 100 µM (inactive)	> 100 µM (inactive)	24.9 µM (inactive)	> 100 µM (inactive)	> 100 µM (inactive)	> 100 µM (inactive)	> 100	> 100 µM (inactive)	> 100 µM (inactive)	> 100 µM (inactive)
C[N+](C)(C)CC(=O)N/N=C(\C(=O)NC1=C(Cl)C(=O)c2ccccc2C1=O)C(C#N)c1nc(-c2ccc([N+](=O)[O-])cc2)cs1 (stereo not given)	2.51 µM (inactive)	11.4 µM (inactive)	8.63 µM (inactive)	6.1 µM (inactive)	6.37 µM (inactive)	6.08 µM (inactive)	11.2 µM (inactive)	3.83 µM (inactive)	8.38 µM (inactive)	15.6 µM (inactive)	5.85 µM (inactive)	9.35 µM (inactive)	1.02 µM (active)	5.73 µM (inactive)	3.15 µM (inactive)	6.89 µM (inactive)	5.36	10.3 µM (inactive)	14.1 µM (inactive)	4.46 µM (inactive)
O=C1/C(=C/c2ccccc2)CN(C(=O)/C=C/c2ccccc2)C/C1=C\c1ccccc1	12.4 µM (inactive)	18.8 µM (inactive)	4.09 µM (inactive)	7.62 µM (inactive)	4.79 µM (inactive)	18.6 µM (inactive)	15.6 µM (inactive)	5.69 µM (inactive)	3.07 µM (inactive)	12.4 µM (inactive)	4.43 µM (inactive)	4.88 µM (inactive)	7.13 µM (inactive)	4.44 µM (inactive)	3.63 µM (inactive)	2.03 µM (inactive)	6.17	3.18 µM (inactive)	3.55 µM (inactive)	21.4 µM (inactive)
Cc1cc(S(=O)(=O)NC(=C(C#N)C#N)[n+]2ccc(N(C)C)cc2)c([S-])cc1Cl	> 100 µM (inactive)	> 100 µM (inactive)	> 100 µM (inactive)	> 100 µM (inactive)	> 100 µM (inactive)	> 100 µM (inactive)	> 100 µM (inactive)	> 100 µM (inactive)	> 100 µM (inactive)	> 100 µM (inactive)	> 100 µM (inactive)	> 100 µM (inactive)	> 100 µM (inactive)	> 100 µM (inactive)	> 100 µM (inactive)	> 100 µM (inactive)	> 100	> 100 µM (inactive)	> 100 µM (inactive)	> 100 µM (inactive)
